According to patent publication US11925624B2, “Methods of administering anti-fibrotic therapy” (GENENTECH, INC., priority 2016, dated 2024):
Like-named read-outs stand apart in the source and are kept apart here.

Assay: Phase 1 Part A food effect (high-fat / low-fat breakfast) on single-dose pharmacokinetics
Assay type: in vivo, human
Settings: for Test/Reference ratio of LS means, AUC0-t / Test/Reference ratio of LS means, AUC0-∞ / Test/Reference ratio of LS means, Cmax: 400 mg Fed; for % AUCextrap: arithmetic mean; for Tmax / AUC(0-t) / AUC(0-inf) / Cmax / Vd/F / half-life: human, plasma, oral
Source text: This study was a randomized, blinded, placebo-controlled, ascending-dose study to evaluate the safety, tolerability, and pharmacokinetic (PK) of single (Part A) and multiple (Part B) doses of Compound I in healthy subjects. In addition, the effects of a standard high-fat breakfast, standard low-fat breakfast, and pretreatment and co-administration of a proton pump inhibitor (PPI) on the tolerability and PK of a single dose of Compound I were investigated in 2 groups in Part A. All subjects received their full dose of Compound I, administered as the appropriate number of either 25 or 200 mg tablets. The high fat breakfast comprised the following: total energy: 895 kcal; total fat: 61 g; total protein: 41 g; total carbohydrate: 46 g. The low fat breakfast comprised the following: total energy: 611 kcal; total fat: 14.7 g; total protein: 20.3 g; total carbohydrate: 106.3 g.
For Group A4, doses (400 mg Compound I or placebo) during Treatment Period 1 were administered in a fasted state on the morning of Day 1. Doses in Treatment Period 2 were administered 30 minutes after starting, and within approximately 10 minutes of completing, a high-fat standard breakfast on the morning of Day 1. Doses during Treatment Period 3 were administered 30 minutes after starting, and within approximately 10 minutes of completing a low-fat standard meal on the morning of Day 1. Doses during Treatment Period 4 were administered on Day 1 after an overnight fast and following administration of a PPI (rabeprazole 20 mg) for 3 days (given as 3 daily [QD] doses, with the final PPI dose at 2 hours prior to study drug administration on Day 1). Subjects in Group A4 received the same Compound I or placebo treatment in all treatment periods, such that each subject received up to 4 single doses of Compound I or placebo.
For Group A5, doses (800 mg Compound I or placebo) during Treatment Period 1 were administered in a fasted state on the morning of Day 1, doses during Treatment Period 2 were administered 30 minutes after starting a low-fat standard breakfast on the morning of Day 1, and doses during Treatment Period 3 were administered on Day 1 after a low-fat meal and following administration of a PPI (rabeprazole 20 mg) for 3 days (given as 3 QD doses, with the final PPI dose at 2 hours prior to study drug administration on Day 1). Subjects in Group A5 received the same Compound I or placebo treatment in all treatment periods, such that each subject received up to 3 single doses of Compound I or placebo.
For Group A4, each subject participated in 3 additional treatment periods, each separated by a minimum of 7 days. Group A4 resided at the CRU from Day −1 to Day 4 of Treatment Periods 2, 3, and 4. For Group A5, each subject participated in 2 additional treatment periods, each separated by a minimum of 7 days. Group A5 resided at the CRU from Day −1 to Day 4 of Treatment Periods 2 and 3. All subjects returned for a Follow-up visit between 5 to 14 days after their final dose of study treatment.
In Part A, all doses in Treatment Period 1 were administered after an overnight fast of at least 8 hours. For the A4 cohort, in Treatment Periods 2 and 3, doses were administered 30 minutes after starting and approximately 10 minutes after completing a high- or low-fat breakfast. In Treatment Period 4, the dose was administered after an overnight fast and following administration of a PPI (PPI was comprised of 3 doses of rabeprazole 20 mg, starting on Day −2 and with the final dose 2 hours before Compound I administration on Day 1). For Group A5, doses during Treatment Period 2 were administered 30 minutes after starting and approximately 10 minutes after completing a low-fat standard breakfast on the morning of Day 1, and doses during Treatment Period 3 were administered on Day 1 after a low-fat meal and following administration of a PPI for 3 days (given as 3 QD doses, with the final PPI dose at 2 hours prior to study drug administration on Day 1).

[1] = High-fat (Test) vs 400 mg Fasted (Reference)
[2] = High-fat (Test) vs 400 mg Fed, Low-fat (Reference)
[3] = Low-fat (Test) vs 400 mg Fasted (Reference)
[4] = 400 mg single dose (A4), Fed, High-fat
[5] = 400 mg single dose (A4), Fed, Low-fat
[6] = 800 mg single dose (A5), Fed, Low-fat
[7] = 800 mg, low-fat fed state vs fasted
[8] = Table 3, 4th section, Low-fat (Test) vs 400 mg Fasted (Reference), n = 6
[9] = high-fat fed state from the fasted state

## Cn1cc(-c2cn(-c3ccc(OC(F)(F)F)cc3)c(=O)c3ncn(C)c23)cn1 [Compound I]
[1]
  Test/Reference ratio of LS means, AUC0-t: 149.0%
  Test/Reference ratio of LS means, AUC0-∞: 145.8%
  Test/Reference ratio of LS means, Cmax: 168.9%
[2]
  Test/Reference ratio of LS means, AUC0-t: 108.7%
  Test/Reference ratio of LS means, AUC0-∞: 108.2%
  Test/Reference ratio of LS means, Cmax: 102.7%
[3]
  Test/Reference ratio of LS means, AUC0-t: 137.1%
  Test/Reference ratio of LS means, AUC0-∞: 134.7%
  Test/Reference ratio of LS means, Cmax: 164.4%
[4]
  AUC0-t (norm): 14000 (hr*ng/mL)/(mg/kg)
  AUC0-∞ (norm): 14100 (hr*ng/mL)/(mg/kg)
  CL/F: 83.0 mL/min
  CL/F(norm): 1.19 (mL/min)/kg
  Cmax (norm): 1330 ng/mL/mg/kg
  λZ: 0.0861 h⁻¹
  % AUCextrap: 0.213%
[5]
  AUC0-t (norm): 12900 (hr*ng/mL)/(mg/kg)
  AUC0-∞ (norm): 13000 (hr*ng/mL)/(mg/kg)
  CL/F: 89.8 mL/min
  CL/F(norm): 1.28 (mL/min)/kg
  Cmax (norm): 1300 ng/mL/mg/kg
  λZ: 0.0852 h⁻¹
  % AUCextrap: 0.691%
[6]
  AUC0-t (norm): 14300 (hr*ng/mL)/(mg/kg)
  AUC0-∞ (norm): 14400 (hr*ng/mL)/(mg/kg)
  CL/F: 83.3 mL/min
  CL/F(norm): 1.16 (mL/min)/kg
  Cmax (norm): 1200 ng/mL/mg/kg
  λZ: 0.0793 h⁻¹
  % AUCextrap: 0.395%
[7]
  Ratio of fed to fasted, AUC0-t: 214.0%
  Ratio of fed to fasted, AUC0-∞: 203.3%
  Ratio of fed to fasted, Cmax: 225.5%
[8]
  Test/Reference ratio of LS means, AUC0-t: 214.0%
  Test/Reference ratio of LS means, AUC0-∞: 203.3%
  Test/Reference ratio of LS means, Cmax: 225.5%
Administration with food (high fat or low fat meal)
  Food effect on bioavailability: positive food effect
[9]
  Increase in AUC0-t: 49.0%
  Increase in AUC0-∞: 45.8%
  Increase in Cmax: 68.9%
400 mg, 400 mg single dose (A4), Fed, High-fat, median, read-out: tmax
  Tmax: 3.5 h
400 mg, 400 mg single dose (A4), Fed, High-fat, read-out: AUC0-t
  AUC(0-t): 80200 ng·h/mL
400 mg, 400 mg single dose (A4), Fed, High-fat, read-out: AUC0-∞
  AUC(0-inf): 80300 ng·h/mL
400 mg, 400 mg single dose (A4), Fed, High-fat, read-out: Cmax
  Cmax: 7620 ng/mL
400 mg, 400 mg single dose (A4), Fed, High-fat, read-out: Vz/F
  Vd/F: 57.8 L
400 mg, 400 mg single dose (A4), Fed, High-fat, read-out: Vz/F(norm)
  Vd/F: 0.826 L/kg
400 mg, 400 mg single dose (A4), Fed, High-fat, read-out: t1/2 (converted)
  half-life: 8.05 h
400 mg, 400 mg single dose (A4), Fed, Low-fat, median, read-out: tmax
  Tmax: 2.5 h
400 mg, 400 mg single dose (A4), Fed, Low-fat, read-out: AUC0-t
  AUC(0-t): 73700 ng·h/mL
400 mg, 400 mg single dose (A4), Fed, Low-fat, read-out: AUC0-∞
  AUC(0-inf): 74200 ng·h/mL
400 mg, 400 mg single dose (A4), Fed, Low-fat, read-out: Cmax
  Cmax: 7420 ng/mL
400 mg, 400 mg single dose (A4), Fed, Low-fat, read-out: Vz/F
  Vd/F: 63.3 L
400 mg, 400 mg single dose (A4), Fed, Low-fat, read-out: Vz/F(norm)
  Vd/F: 0.904 L/kg
400 mg, 400 mg single dose (A4), Fed, Low-fat, read-out: t1/2 (converted)
  half-life: 7.52 h
400 mg, Table 3, 4th section, 400 mg Compound I Fasted, n = 6, read-out: LS Means AUC0-t (Reference)
  AUC(0-t): 74500 ng·h/mL
400 mg, Table 3, 4th section, 400 mg Compound I Fasted, n = 6, read-out: LS Means AUC0-∞ (Reference)
  AUC(0-inf): 78700 ng·h/mL
400 mg, Table 3, 4th section, 400 mg Compound I Fasted, n = 6, read-out: LS Means Cmax (Reference)
  Cmax: 5910 ng/mL
400 mg, Table 3, 4th section, 400 mg Compound I Fed, Low-fat, n = 6, read-out: LS Means Cmax (Test)
  Cmax: 13300 ng/mL
400 mg, Table 3, 4th section, head as printed:, n = 6, read-out: LS Means AUC0-t (Test)
  AUC(0-t): 159000 ng·h/mL
400 mg, Table 3, 4th section, head as printed:, n = 6, read-out: LS Means AUC0-∞ (Test)
  AUC(0-inf): 160000 ng·h/mL
400 mg, high-fat fed state, read-out: tmax values, range
  Tmax: 1.5 to 6 h
800 mg, 800 mg single dose (A5), Fed, Low-fat, median, read-out: tmax
  Tmax: 3 h
800 mg, 800 mg single dose (A5), Fed, Low-fat, read-out: AUC0-t
  AUC(0-t): 159000 ng·h/mL
800 mg, 800 mg single dose (A5), Fed, Low-fat, read-out: AUC0-∞
  AUC(0-inf): 160000 ng·h/mL
800 mg, 800 mg single dose (A5), Fed, Low-fat, read-out: Cmax
  Cmax: 13300 ng/mL
800 mg, 800 mg single dose (A5), Fed, Low-fat, read-out: Vz/F
  Vd/F: 63 L
800 mg, 800 mg single dose (A5), Fed, Low-fat, read-out: Vz/F(norm)
  Vd/F: 0.876 L/kg
800 mg, 800 mg single dose (A5), Fed, Low-fat, read-out: t1/2 (converted)
  half-life: 8.74 h
800 mg, 400 and 800 mg, high- and low-fat states, read-out: Geometric mean t1/2, range
  half-life: 7.5 to 8.7 h
low-fat fed state, read-out: tmax values, range
  Tmax: 1 to 4 h
low-fat fed state (vs fasted)
  Increase in AUC0-t: 37.1%
  Increase in AUC0-∞: 34.7%
  Increase in Cmax: 64.4%
